Literature values in Sander's compilation of Henry's law constants (doi:10.1021/je049850a).

Experiment: Henry solubility constant Hcp at 298.15 K (mol/(m3 Pa))
Conditions: reference: Plyasunov et al. (2004); cited value

Row | SMILES | Henry solubility constant Hcp
1 | CC(=O)OC(C)(C)C [1,1-dimethylethyl ethanoate] | 0.011
2 | CC(C)COC(=O)C(C)C [2-methylpropyl 2-methylpropanoate] | 0.0078
3 | CC(C)CCOC=O [3-methylbutyl methanoate] | 0.012
4 | CC(C)COC=O [(2-methylpropyl)-methanoate] | 0.016
5 | CCCCOC(C)=O [butyl ethanoate] | 0.035
6 | CCCCOC=O [butyl methanoate] | 0.019
7 | CCCCOC(=O)CCCC [butyl pentanoate] | 0.0098
8 | CCCCOC(=O)CC [butyl propanoate] | 0.02
9 | CCOC(=O)C(C)(C)C [ethyl 2,2-dimethylpropanoate] | 0.0057
10 | CCCCCCCCCC(=O)OCC [ethyl decanoate] | 0.012
11 | CCOC(C)=O [ethyl ethanoate] | 0.063
12 | CCOC=O [ethyl methanoate] | 0.035
13 | CCCCCCCC(=O)OCC [ethyl octanoate] | 0.017
14 | CCCCCCOC(C)=O [hexyl ethanoate] | 0.017
15 | CCCCCCOC=O [hexyl methanoate] | 0.01
16 | CC(C)OC=O [isopropyl methanoate] | 0.019
17 | COC(=O)C(C)(C)C [methyl 2,2-dimethylpropanoate] | 0.0095
18 | COC(C)=O [methyl ethanoate] | 0.081
19 | CCCCCCCCC(=O)OC [methyl nonanoate] | 0.0082
20 | CCCCCCCC(=O)OC [methyl octanoate] | 0.012
21 | CCC(=O)OC [methyl propanoate] | 0.055
22 | CCCCCOC(C)=O [pentyl ethanoate] | 0.027
23 | CCCCCOC=O [pentyl methanoate] | 0.016
24 | CCCCCOC(=O)CC [pentyl propanoate] | 0.019
25 | CCCOC=O [propyl methanoate] | 0.028

Results, then the compound that gave them:

Row | Henry solubility constant Hcp | SMILES
26 | 0.023 | CCC(C)OC(C)=O (stereo not drawn) [2-butyl ethanoate]
27 | 0.024 | CC(=O)OCC(C)C [2-methylpropyl ethanoate]
28 | 0.018 | CCCC(=O)OC(C)C [2-propyl butanoate]
29 | 0.033 | CC(=O)OC(C)C [2-propyl ethanoate]
30 | 0.02 | CC(=O)OCCC(C)C [3-methylbutyl ethanoate]
31 | 0.015 | CCC(=O)OCC(C)C [(2-methylpropyl)-propanoate]
32 | 0.016 | CCCCOC(=O)CCC [butyl butanoate]
33 | 0.014 | CCOC(=O)C(C)CC (stereo not drawn) [ethyl 2-methylbutanoate]
34 | 0.017 | CCOC(=O)C(C)C [ethyl 2-methylpropanoate]
35 | 0.014 | CCOC(=O)CC(C)C [ethyl 3-methylbutanoate]
36 | 0.029 | CCCC(=O)OCC [ethyl butanoate]
37 | 0.019 | CCCCCC(=O)OCC [ethyl hexanoate]
38 | 0.023 | CCCCC(=O)OCC [ethyl pentanoate]
39 | 0.041 | CCOC(=O)CC [ethyl propanoate]
40 | 0.018 | CCC(=O)OC(C)C [isopropyl propanoate]
41 | 0.026 | COC(=O)C(C)C [methyl 2-methylpropanoate]
42 | 0.042 | CCCC(=O)OC [methyl butanoate]
43 | 0.018 | CCCCCCC(=O)OC [methyl heptanoate]
44 | 0.026 | CCCCCC(=O)OC [methyl hexanoate]
45 | 0.03 | CCCCC(=O)OC [methyl pentanoate]
46 | 0.022 | CCCOC(=O)CCC [propyl butanoate]
47 | 0.045 | CCCOC(C)=O [propyl ethanoate]
48 | 0.029 | CCCOC(=O)CC [propyl propanoate]
